Data: DBAASP
Converted amounts (≈) assume the structure as drawn. “And” between values parts separate entries of the source, which are not always exact repeats. Equal entries are not always repeated.

Experiments:
Test in all cases: ≥ marks a high value that may be exact or a test limit, other limits are often not marked, values filed in µg/mL are converted to µM
[1] = test system: Staphylococcus epidermidis ATCC 12228
[2] = test system: Candida albicans CGMCC 2.2086
[3] = test system: Staphylococcus aureus ATCC 25923
[4] = test system: Staphylococcus aureus ATCC 43300
[5] = test system: Escherichia coli 078
[6] = test system: Candida tropicalis CGMCC 2.1975
[7] = test system: Pseudomonas aeruginosa ATCC 27853
[8] = test system: Escherichia coli K99
[9] = test system: Escherichia coli K88
[10] = test system: Salmonella enterica subsp. enterica serovar Pullorum ATCC 7913
[11] = test system: Salmonella enterica subsp. enterica serovar Typhimurium ATCC 14028
[12] = test system: Salmonella enterica subsp. enterica serovar Typhimurium C77-31
[13] = test system: Escherichia coli UB1005
[14] = test system: Candida parapsilosis CGMCC 2.3989
[15] = test system: Enterococcus faecalis NCTC 12697
[16] = test system: Staphylococcus aureus NCTC 10788
[17] = test system: Candida albicans NCYC 1467
[18] = test system: Staphylococcus aureus NCTC 12493
[19] = test system: Klebsiella pneumoniae ATCC 43816
[20] = test system: Escherichia coli NCTC 10418
[21] = test system: Micrococcus luteus ATCC 49732
[22] = test system: Candida albicans
[23] = test system: Candida albicans ATCC 10231
[24] = test system: Pseudomonas aeruginosa ATCC 9027
[25] = test system: Staphylococcus aureus ATCC 29737
[26] = test system: Escherichia coli ATCC 25922
[27] = test system: Klebsiella aerogenes ATCC 13048
[28] = test system: Bacillus subtilis ATCC 23857
[29] = test system: Candida albicans ATCC 90028
[30] = test system: Klebsiella pneumoniae ATCC 700603
[31] = test system: Acinetobacter baumannii ATCC 19606
[32] = test system: Cryptococcus neoformans ATCC 208821

**Q.** How did the MIC [1] turn out when CC[C@H](C)[C@H](NC(=O)[C@H](CCCN=C(N)N)NC(=O)[C@H](C)NC(=O)[C@H](C)N)C(=O)N[C@H](C(=O)N[C@@H](CC(C)C)C(=O)N[C@@H](CCCN=C(N)N)C(=O)N[C@@H](CCCN=C(N)N)C(=O)N[C@@H](CCCN=C(N)N)C(=O)N[C@@H](Cc1ccccc1)C(=O)N[C@@H](CCCN=C(N)N)C(N)=O)[C@@H](C)CC [AARIILRRRFR] was run?
**A.** 16 µM (≈ 22.8 µg/mL)

**Q.** And the MIC [2]?
**A.** ≥ 128 µM

**Q.** And the MIC [3]?
**A.** 32 µM (≈ 45.7 µg/mL)

**Q.** And the MIC [4]?
**A.** 16 µM (≈ 22.8 µg/mL)

**Q.** And the MIC [5]?
**A.** 16 µM (≈ 22.8 µg/mL)

**Q.** What about the MIC [6] of the same molecule?
**A.** ≥ 64 µM

**Q.** And the MIC [7]?
**A.** > 128 µM

**Q.** What about the MIC [8] of the same molecule?
**A.** 8 µM (≈ 11.4 µg/mL)

**Q.** And the MIC [9]?
**A.** 16 µM (≈ 22.8 µg/mL)

**Q.** What about the MIC [10] of the same molecule?
**A.** 16 µM (≈ 22.8 µg/mL)

**Q.** What about the MIC [11] of the same molecule?
**A.** 32 µM (≈ 45.7 µg/mL)

**Q.** And the MIC [12]?
**A.** 8 µM (≈ 11.4 µg/mL)

**Q.** What about the MIC [13] of the same molecule?
**A.** 16 µM (≈ 22.8 µg/mL)

**Q.** What about the MIC [14] of the same molecule?
**A.** ≥ 64 µM

**Q.** Which results are given for CC[C@H](C)[C@H](NC(=O)[C@H](C)NC(=O)[C@H](CO)NC(=O)[C@@H](NC(=O)[C@@H](NC(=O)[C@H](CCCCN)NC(=O)[C@@H]1CCCN1C(=O)[C@@H](NC(=O)[C@H](CC(C)C)NC(=O)[C@H](CO)NC(=O)[C@H](CC(C)C)NC(=O)[C@@H](N)Cc1ccccc1)[C@@H](C)CC)[C@@H](C)CC)[C@@H](C)CC)C(=O)N[C@@H](CO)C(=O)N[C@@H](C)C(=O)N[C@@H](CC(C)C)C(=O)N[C@H](C(=O)N[C@@H](CC(N)=O)C(=O)N[C@@H](Cc1cnc[nH]1)C(=O)N[C@@H](Cc1ccccc1)C(N)=O)[C@@H](C)CC [FLSLIPKIISAISALINHF]?
**A.** MIC [15]: ≥ 32 µM; MIC [16]: 2 µM (≈ 4.19 µg/mL); MIC [17]: ≥ 32 µM; MIC [18]: ≥ 128 µM; MIC [19]: ≥ 512 µM; MIC [7]: > 512 µM; MIC [20]: ≥ 512 µM

**Q.** For CC[C@H](C)[C@H](NC(=O)[C@H](CO)NC(=O)[C@@H]1CCCN1C(=O)[C@H](CC(C)C)NC(=O)[C@H](CC(C)C)NC(=O)[C@H](CO)NC(=O)[C@H](CC(C)C)NC(=O)[C@@H](N)Cc1ccccc1)C(=O)N[C@H](C(=O)N[C@@H](CO)C(=O)NCC(=O)N[C@@H](C)C(=O)N[C@H](C(=O)N[C@@H](CO)C(=O)N[C@@H](CC(C)C)C(=O)N[C@@H](C)C(=O)N[C@@H](CCCCN)C(=O)N[C@@H](CCCCN)C(=O)N[C@@H](CC(C)C)C(N)=O)C(C)C)C(C)C [FLSLLPSIVSGAVSLAKKL], which MIC [21] is on record?
**A.** 1.3 µM (≈ 2.53 µg/mL)

**Q.** CC(C)C[C@H](NC(=O)[C@H](CCC(N)=O)NC(=O)[C@H](CCC(N)=O)NC(=O)[C@H](C)NC(=O)CNC(=O)[C@H](C)NC(=O)[C@H](CCCCN)NC(=O)CNC(=O)[C@@H](NC(=O)[C@H](CCC(N)=O)NC(=O)[C@H](CCCCN)NC(=O)[C@H](CCCN=C(N)N)NC(=O)[C@H](CC(C)C)NC(=O)[C@H](Cc1ccc(O)cc1)NC(=O)[C@H](CCCCN)NC(=O)[C@H](C)NC(=O)CNC(=O)[C@H](C)NC(=O)[C@H](CCCCN)NC(=O)[C@H](Cc1ccccc1)NC(=O)[C@H](CC(C)C)NC(=O)[C@H](CO)NC(=O)[C@H](CO)NC(=O)[C@H](Cc1ccccc1)NC(=O)CN)C(C)C)C(N)=O [GFSSLFKAGAKYLRKQVGKAGAQQL] was tested. Which MIC [15] did it give?
**A.** 16 µM (≈ 42.5 µg/mL)

**Q.** And the MIC [16]?
**A.** 16 µM (≈ 42.5 µg/mL)

**Q.** And the MIC [17]?
**A.** ≥ 64 µM

**Q.** What about the MIC [18] of the same molecule?
**A.** ≥ 64 µM

**Q.** What about the MIC [19] of the same molecule?
**A.** ≥ 128 µM

**Q.** What about the MIC [7] of the same molecule?
**A.** 16 µM (≈ 42.5 µg/mL)

**Q.** And the MIC [20]?
**A.** 8 µM (≈ 21.2 µg/mL)

**Q.** What does the source list for CC(C)C[C@H](NC(=O)[C@H](C)NC(=O)CNC(=O)[C@H](CCCN=C(N)N)NC(=O)[C@H](CCCN=C(N)N)NC(=O)[C@H](CCCN=C(N)N)NC(=O)[C@H](CCC(N)=O)NC(=O)[C@H](CCCN=C(N)N)NC(=O)[C@H](CCCN=C(N)N)NC(=O)[C@H](CCCCN)NC(=O)[C@H](CCCCN)NC(=O)[C@H](CCCN=C(N)N)NC(=O)CN)C(=O)N[C@@H](Cc1c[nH]c2ccccc12)C(=O)N[C@@H](CCCCN)C(=O)N[C@@H](CO)C(=O)N[C@@H](CC(C)C)C(=O)N[C@@H](CC(C)C)C(=O)N[C@@H](CCCCN)C(=O)N[C@@H](CC(N)=O)C(=O)N[C@H](C(=O)NCC(=O)N[C@@H](CCCCN)C(=O)N[C@@H](C)C(N)=O)C(C)C [GRKKRRQRRRGALWKSLLKNVGKA]?
**A.** MIC [15]: ≥ 32 µM; MIC [16]: 8 µM (≈ 22.9 µg/mL); MIC [17]: 4 µM (≈ 11.4 µg/mL); MIC [18]: 16 µM (≈ 45.8 µg/mL); MIC [19]: ≥ 32 µM; MIC [7]: 8 µM (≈ 22.9 µg/mL); MIC [20]: 4 µM (≈ 11.4 µg/mL)

**Q.** What does the source list for CC[C@H](C)[C@H](NC(=O)CNC(=O)[C@H](CCCCN)NC(=O)[C@H](Cc1c[nH]c2ccccc12)NC(=O)[C@H](CC(C)C)NC(=O)[C@H](CC(C)C)NC(=O)[C@H](Cc1c[nH]c2ccccc12)NC(=O)[C@H](CCCCN)NC(=O)CNC(=O)[C@@H](NC(=O)[C@@H](N)CCCCN)[C@@H](C)CC)C(=O)N[C@@H](CCCCN)C(=O)N[C@@H](CCCCN)C(=O)N[C@H](C(=O)NCC(=O)N[C@@H](CCCCN)C(=O)N[C@@H](Cc1c[nH]c2ccccc12)C(=O)N[C@@H](CC(C)C)C(N)=O)[C@@H](C)CC [KIGKWLLWKGIKKIGKWL]?
**A.** MIC [22]: 5.66 µM and 4 µM; MIC [2]: 4 µM (≈ 8.78 µg/mL); MIC [6]: 2 µM (≈ 4.39 µg/mL); MIC [14]: 8 µM (≈ 17.6 µg/mL)

**Q.** How did the MIC [23] turn out when CC(C)C[C@H](NC(=O)[C@H](CC(C)C)NC(=O)[C@H](CCCCN)NC(=O)[C@H](CCCCN)NC(=O)[C@H](CC(C)C)NC(=O)[C@H](CC(C)C)NC(=O)[C@H](CCCCN)NC(=O)[C@H](CCCCN)NC(=O)[C@H](CC(C)C)NC(=O)[C@H](CC(C)C)NC(=O)[C@H](CCCCN)NC(=O)[C@H](CCCCN)NC(=O)[C@H](CC(C)C)NC(=O)[C@@H](N)CC(C)C)C(=O)N[C@@H](CCCCN)C(=O)N[C@@H](CCCCN)C(N)=O [LLKKLLKKLLKKLLKK] was run?
**A.** > 25.7 µM

**Q.** What about the MIC [24] of the same molecule?
**A.** 3.23 µM (≈ 6.3 µg/mL)

**Q.** What about the MIC [25] of the same molecule?
**A.** 25.7 µM (≈ 50 µg/mL)

**Q.** What about the MIC [26] of the same molecule?
**A.** 6.41 µM (≈ 12.5 µg/mL)

**Q.** And the MIC [27]?
**A.** 12.8 µM (≈ 25 µg/mL)

**Q.** What about the MIC [28] of the same molecule?
**A.** 4.07 µM (≈ 7.93 µg/mL)

**Q.** How did the MIC [29] turn out when NC(=O)C[C@H](N)C(=O)N[C@@H](Cc1cnc[nH]1)C(=O)N[C@@H](Cc1cnc[nH]1)C(=O)N[C@@H](CCCN=C(N)N)C(=O)N[C@@H](CCCN=C(N)N)C(=O)N[C@@H](Cc1cnc[nH]1)C(=O)N[C@@H](Cc1cnc[nH]1)C(=O)N[C@@H](CCCN=C(N)N)C(=O)N[C@@H](CS)C(=O)N[C@@H](CCCN=C(N)N)C(=O)O [NHHRRHHRCR] was run?
**A.** 22.7 µM (≈ 32 µg/mL)

**Q.** What about the MIC [30] of the same molecule?
**A.** > 22.7 µM

**Q.** What about the MIC [26] of the same molecule?
**A.** > 22.7 µM

**Q.** And the MIC [31]?
**A.** > 22.7 µM

**Q.** What about the MIC [4] of the same molecule?
**A.** > 22.7 µM

**Q.** What about the MIC [7] of the same molecule?
**A.** > 22.7 µM

**Q.** And the MIC [32]?
**A.** 22.7 µM (≈ 32 µg/mL)
